Data taken from US20210369661A1, “METHODS AND COMPOSITIONS FOR TREATING AND RECOVERING FROM VIRAL INFECTIONS” (IMMUNOFLEX THERAPEUTICS INC., priority 2020, published 2021).
pIC50, pKi: −log10 of the molar value. Values joined by “and” are separate entries in the source; they are usually repeats but may differ in a detail not shown here. Equal values may be shown once. “Also recorded” adds a separate entry of the source.

How the values were obtained:
[1] = biological target: T1, fatty acid amide hydrolase (FAAH) (Rattus norvegicus, UniProt P97612); conditions: rat brain homogenates; read-out: IC50, inhibition of anandamide hydrolysis; cited from earlier work
T1 construct: from tissue; host or cells: rat brain homogenates
T1 sequence (P97612 1-579): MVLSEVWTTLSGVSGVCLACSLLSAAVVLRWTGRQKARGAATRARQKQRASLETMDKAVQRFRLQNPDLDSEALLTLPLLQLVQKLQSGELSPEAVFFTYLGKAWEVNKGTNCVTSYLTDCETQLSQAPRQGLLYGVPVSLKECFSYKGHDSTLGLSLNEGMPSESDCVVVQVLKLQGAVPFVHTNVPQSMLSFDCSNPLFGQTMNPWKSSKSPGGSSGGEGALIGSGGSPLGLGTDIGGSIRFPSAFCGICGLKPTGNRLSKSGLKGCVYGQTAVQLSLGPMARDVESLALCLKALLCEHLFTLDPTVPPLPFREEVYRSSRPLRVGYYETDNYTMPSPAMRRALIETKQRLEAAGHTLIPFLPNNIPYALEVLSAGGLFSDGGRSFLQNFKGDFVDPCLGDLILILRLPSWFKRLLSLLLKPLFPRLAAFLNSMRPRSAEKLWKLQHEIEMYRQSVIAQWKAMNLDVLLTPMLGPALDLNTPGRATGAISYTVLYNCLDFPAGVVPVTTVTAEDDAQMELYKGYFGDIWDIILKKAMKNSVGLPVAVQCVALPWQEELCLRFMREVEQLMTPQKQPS

HCV infected cells = conditions: in vitro; cited from earlier work
[2] = cited from earlier work
CB1 and CB2 = conditions: cited from earlier work; for Agonism or antagonism against CB1 and CB2: up to 20 μM
GPR55 = GPR55 (Homo sapiens, UniProt Q9Y2T6); conditions: cited from earlier work
[3] = test system: TCR β chain immune repertoire; experiment: T cell receptor β chain immune repertoire diversity index after a controlled dose (iRepertoire sequencing of blood); format: in vivo, human; conditions: for Total number of clonotypes: within 24-48 hr of applied dose
HIV [4] = conditions: 293.27.2, H9, MOLT-4 cells, PBMCs; with or without TNFα / PMA stimulation; cited from earlier work
[5] = test system: A/H1N1 Singapore 6/86 influenza virus; conditions: cited from earlier work
[6] = test system: A/swine/HeBei/012/2008 (H9N2) viruses; conditions: intra-nasal inoculation with or without NAC; cited from earlier work
[7] = test system: influenza A (H5N1) viruses; conditions: lung epithelial cells; cited from earlier work
HIV [8] = conditions: cited from earlier work
human PBMCs = conditions: NAC 1 mM, in vitro; cited from earlier work
[9] = Intoxication after topical application of THC salve; conditions: 10 mg THC, application for three days
[10] = biological target: monoacylglycerol lipase (MAGL); conditions: reversible mechanism; read-out: IC50, inhibition of MAGL; cited from earlier work
CB1 receptor = CB1 receptor (Homo sapiens, UniProt P21554); conditions: read-out: I value at the CB1 receptor; cited from earlier work
[11] = test system: influenza virus strain A/PR8(H1N1); conditions: lethal influenza infection in mice; cited from earlier work
influenza virus = conditions: combination with ribavirin vs ribavirin alone; cited from earlier work
CB2 receptor = CB2 receptor (Homo sapiens, UniProt P34972); conditions: nM concentrations; cited from earlier work
Sequence of CB2 receptor (P34972 whole entry): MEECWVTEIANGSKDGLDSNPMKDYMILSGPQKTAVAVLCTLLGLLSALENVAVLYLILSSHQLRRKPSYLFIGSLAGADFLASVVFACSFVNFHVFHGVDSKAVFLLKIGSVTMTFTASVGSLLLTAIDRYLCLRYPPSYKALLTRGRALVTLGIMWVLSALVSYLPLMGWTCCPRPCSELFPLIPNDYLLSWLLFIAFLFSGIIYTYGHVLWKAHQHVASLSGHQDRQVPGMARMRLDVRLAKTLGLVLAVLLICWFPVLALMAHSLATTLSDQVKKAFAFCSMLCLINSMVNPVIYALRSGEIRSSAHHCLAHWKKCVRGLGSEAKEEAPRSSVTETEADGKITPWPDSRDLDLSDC

Sequence of GPR55 (Q9Y2T6 whole entry, species assumed): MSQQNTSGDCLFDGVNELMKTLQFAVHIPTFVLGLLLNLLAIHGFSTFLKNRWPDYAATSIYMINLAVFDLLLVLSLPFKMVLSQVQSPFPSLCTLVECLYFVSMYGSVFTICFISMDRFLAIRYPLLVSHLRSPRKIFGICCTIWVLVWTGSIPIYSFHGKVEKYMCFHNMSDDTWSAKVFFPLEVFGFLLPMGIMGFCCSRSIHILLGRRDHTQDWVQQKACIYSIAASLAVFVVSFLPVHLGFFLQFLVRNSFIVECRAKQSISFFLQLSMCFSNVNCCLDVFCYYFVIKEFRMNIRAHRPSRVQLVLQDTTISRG
Sequence of CB1 receptor (P21554 whole entry): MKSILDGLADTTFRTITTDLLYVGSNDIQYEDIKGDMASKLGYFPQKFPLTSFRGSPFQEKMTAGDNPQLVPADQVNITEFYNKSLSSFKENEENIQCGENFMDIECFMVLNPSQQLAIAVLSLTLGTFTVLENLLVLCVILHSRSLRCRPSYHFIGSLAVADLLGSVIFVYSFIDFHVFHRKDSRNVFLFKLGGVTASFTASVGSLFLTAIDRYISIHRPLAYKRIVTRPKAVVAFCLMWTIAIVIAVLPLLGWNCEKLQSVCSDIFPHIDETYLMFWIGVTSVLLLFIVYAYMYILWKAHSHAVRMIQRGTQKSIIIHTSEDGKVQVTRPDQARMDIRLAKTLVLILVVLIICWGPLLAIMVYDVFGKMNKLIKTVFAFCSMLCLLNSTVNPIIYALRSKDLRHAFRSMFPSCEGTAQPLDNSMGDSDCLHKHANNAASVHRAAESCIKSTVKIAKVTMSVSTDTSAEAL

O=c1cc(-c2ccccc2)oc2cc(O)ccc12 [7-hydroxyflavone]
pIC50 [1]: > 6.00

C=C(C)[C@@H]1CCC(C)=C[C@H]1c1c(O)cc(CCCCC)cc1O [CBD, cannabidiol]
Cell death of HCV infected cells (HCV infected cells): approximately 85%

CCCCCc1cc(O)c2c(c1)OC(C)(C)[C@@H]1CCC(C)=C[C@@H]21 [Dronabinol]
Amount reaching the blood stream by absorption through the digestive system ([2]; oral): 10-20 % of the administered dose
Duration of peak therapeutic effect ([2]; post administration): 2 to 4 h

Cc1cccc(N2CCN(C(=O)c3cc(S(=O)(=O)N(C)C)ccc3N3CCCC3)CC2)c1C [ML184]
Selectivity against CB1 and CB2 (CB1 and CB2): 57 fold
Potency for GPR55 (GPR55): 263 nM

COc1ccc(-c2csc(NC(=O)CSc3nnc4c(C)cc5ccccc5n34)n2)cc1 [ML185]
Selectivity against CB1 and CB2 (CB1 and CB2): greater than 48 fold
Potency for GPR55 (GPR55): 658 nM

COc1ccc(S(=O)(=O)N2CCOCC2)cc1NC(=O)c1cc2c(s1)CCCC2 [ML186]
Selectivity against CB1 and CB2 (CB1 and CB2): greater than 100 fold
Potency for GPR55 (GPR55): 305 nM

Cc1ccc(C2(C(=O)N3CCC(n4nc(-c5ccccc5)oc4=O)CC3)CC2)cc1 [ML191]
Agonism or antagonism against CB1 and CB2 (CB1 and CB2): no observed agonism or antagonism

Cc1nc(N2CCN(C(=O)c3ccco3)CC2)c2c3c(sc2n1)CCCC3 [ML192]
Agonism or antagonism against CB1 and CB2 (CB1 and CB2): no observed agonism or antagonism

Cc1cc(C)c2nc(-c3ccccn3)cc(C(=O)Nc3ccc(S(=O)(=O)Nc4onc(C)c4C)cc3)c2c1 [ML193]
Agonism or antagonism against CB1 and CB2 (CB1 and CB2): no observed agonism or antagonism

CC(=O)N[C@@H](CS)C(=O)O [NAC, N-acetylcysteine]
Diversity index, Dosed ([3]; NAC single 1200 mg dose (2×600 mg effervescent tablets), 24 hours post dose): 20.0 and 15.9
Diversity index, Fold change ([3]; NAC single 1200 mg dose, 24 hours vs baseline): 1.6 fold and 1.5 fold
Time until immune diversity returns to baseline ([3]; after a single dose): 24 h
Total number of clonotypes [3]: increases
HIV replication (HIV [4]): inhibit HIV replication; also recorded: blocked stimulation of HIV replication
Tolerability ([5]; NAC 600 mg twice daily for 6 months): well tolerated
Virus-infected subjects who developed a symptomatic form ([5]; NAC effervescent tablets 600 mg twice daily for 6 months, 79% in the placebo group): 25%
Pulmonary inflammation, edema, myeloperoxidase, cells and cytokines in BAL fluid [6]: reduced
Production of pro-inflammatory molecules [7]: inhibit
Survival, risk ratio (HIV [8]; 73 subjects with survival data, P=0.0003, median NAC dose 5.3 g/day, median 24 weeks): 0.3 (0.1-0.6)
Viral load (HIV [8]; NAC treatment during the trial, P>0.1): did not result in a significant change
CD4 T cell count (HIV [8]; NAC treatment during the trial, P>0.9): did not result in a significant change
Whole blood GSH and T cell GSH (HIV [8]; NAC treatment for 8 weeks): replenished
Influenza virus specific T lymphocyte proliferation and IFNγ production (human PBMCs): increase

CCCCCc1cc(O)c2c(c1)OC(C)(C)[C@@H]1CCC(C)=C[C@@H]21 [THC, Δ^9-tetrahydrocannabinol]
Total number of clonotypes [3]: rapidly increases
Intoxication characteristic of THC [9]: without intoxication

CC(C)=CCC[C@@H](C)[C@@H]1CC[C@]2(C)C3=C(CC[C@@]12C)[C@@]1(C)CC[C@H](O)C(C)(C)[C@@H]1CC3 [euphol]
pIC50 [10]: 6.50

C=C[C@H](O)C#CC#CC/C=C\CCCCCCC [falcarinol]
pKi (CB1 receptor): > 6.00

CCOC(=O)C1=C[C@@H](OC(CC)CC)[C@H](NC(C)=O)[C@@H](N)C1 [oseltamivir]
Survival rate [11]: 60%

NC(=O)c1ncn([C@@H]2O[C@H](CO)[C@@H](O)[C@H]2O)n1 [ribavirin]
Survival rate (influenza virus): 58%

C=C1CC/C=C(\C)CC[C@@H]2[C@@H]1CC2(C)C [β-caryophyllene]
Functional activity at the CB2 receptor (CB2 receptor): full agonist
